The text below walks through data of US5053006A, “Method for the permanent occlusion of arteries” (priority 1990, dated 1991).

Structures are written as SMILES. A value given as a limit tells only on which side of the number the result lay.

Data set [1] relates to femoral artery. Briefly: Argon laser photothrombotic occlusion of femoral artery (Example 1). Type of data set: in vivo, rat (male Wistar). From the text: Male Wistar rats, each weighing 280 to 330 gm, were anesthetized with 1.5% halothane and maintained on a 70:30 mixture of nitrous oxide and oxygen delivered by a closely fitting Mylar face mask (Watson et al., J. Neurosurg., 66:748-754, 1987, the disclosure of which is hereby incorporated by reference and relied upon). After separation of the temporal musculature, the middle cerebral artery was exposed via a small subtemporal craniectomy produced by a high-speed drill under an operating microscope; the dura was left intact. The common carotid arteries were exposed bilaterally by a midline incision extending from the mental process to the sternal notch; the sternocleidomastoid muscle was then retracted laterally to expose the underlying artery. Bleeding from the operative site was controlled with pressure and Gelfoam. The animal was then prepared for irradiation by filling the surgical cavity with saline, just submerging the exposed blood vessel. The saline solution was kept clear by frequent suction and irrigation. The femoral arteries were exposed by bilateral inguinal incisions and were prepared for irradiation in a fashion similar to that described above.
As assessed by observation of rose bengal fluorescence, thrombus development in the common carotid or femoral arteries followed a course similar to that observed in the middle cerebral artery, except that the thrombus appeared as a […] as viewed through the blood vessel wall. Intense scattering of the incident laser light was also noted at about the time that arterial pulsations at the level of irradiation ceased.
Ultrastructural studies were carried out at either 30 minutes or 7 days following irradiation. Animals were perfused transcardially with 0.9% sodium chloride solution followed by 2% paraformaldehyde and 2.5% glutaraldehyde in a 0.1 M sodium phosphate buffer. Perfusion pressure was monitored throughout the procedure and was maintained at 100 mm Hg. After perfusion fixation, the femoral and common carotid arteries were isolated and placed in fixative for an additional 2 hours. To isolate the middle cerebral artery, the brain was first removed from the cranial vault and placed in fixative for a 2-hour period. Next, the whole brain was placed in phosphate-buffered 1% osmium tetroxide for 2 minutes.

Data set [2] concerns conjunctival epithelium on vascularized corneas. Description: Epithelial differentiation on photothrombosed corneas (goblet cells, cytology, histology). Type of data set: in vivo, New Zealand albino rabbit. As for the experimental part: In order to study the goblet cell density on the vascularized corneas before and after photothrombosis, corneal flat-mounts were prepared and stained according to usual methods (Tseng et al., Invest. Opthalmol. Vis. Sci., 25:1168-76, 1984). The pattern of goblet cell disappearance was then analyzed and specifically correlated with the treated area.
The epithelial phenotype of the control and treated corneas was then studied by impression cytology (Tseng, Ophthalmology, 92:728-33, 1985) and routine histology using hematoxylin and PAS. In addition, immunofluorescent stainings of the frozen sections using a previously developed anti-rabbit ocular mucin monoclonal antibody [anti-ROM] was performed to study mucin expression.

The test system of data set [3] is Factor VIII. Briefly: Immunofluorescence study of thrombus composition, Factor VIII. Further details: species or system rat. The method, then: Following incubation with primary antibody for one hour, FITC-conjugated goat anti-mouse IgG and goat anti-mouse IgG antibodies (Sigma Chemical Co., St. Louis, Mo.) were used as secondary antibodies for anti-fibrinogen and anti-Factor VIII, respectively. The sections were observed by epi-illumination with a Nikon Microphot-FX microscope.

Data set [4] deals with middle cerebral artery.
Protocol: In order to conduct irradiation of the rat middle cerebral artery at normal blood pressure, oral intubation was performed and mechanical ventilation was initiated after paralysis with pancuronium bromide. The rat was then placed on a tiltable stereotaxic frame, and the middle cerebral artery was exposed through a subtemporal approach. The right temporalis musculature was reflected anteriorally, and a 2×2 mm subtemporal craniotomy was carried out with the aid of a high-speed drill under a dissecting microscope, leaving the middle cerebral artery exposed and the dura intact at the level of the olfactory tract. Rose bengal dye (2 mg in 0.133 ml saline per 100 g animal weight) was administered intravenously, resulting in a blood concentration of 340 μM.
The right middle cerebral artery, at a point just distal to the olfactory branches, was irradiated with the beam of a tunable argon ion laser (Lexel Model 95, Cooper LaserSonics, Santa Clara, CA), operated at 514.5 nm in the continuous mode at a power level of 50 mW. The beam was focused longitudinally onto the middle cerebral artery with two cylindrical lenses, both of 30 cm focal length. […] During irradiation, the irradiated segment appeared orange, owing to rose bengal fluorescence in the flowing blood stream. […]
The conditions of data set [5]: rabbit, in vivo.
Protocol: In order to investigate possible systemic side effects of rose bengal, the blood chemistry profiles of healthy rabbits before and after intravenous injection of rose bengal were studied. Four practical dosages, i.e., 40, 16, 8 and 4 mg/kg bw, were administered. Five rabbits were used for each dosage except for the dosage of 40 mg/kg bw, in which case ten rabbits were used. Three blood samples (3 ml each) were collected from each rabbit before injection with rose bengal, and one and five days following injection.

Turning to `O=C([O-])c1c(Cl)c(Cl)c(Cl)c(Cl)c1-c1c2cc(I)c(=O)c(I)c-2oc2c(I)c([O-])c(I)cc12.[Na+].[Na+]` [rose bengal], the “complete occlusion, irradiation time” value in data set [1] (40 mg/kg i.v., 514.5 nm argon laser) was not above 3 min. In addition, in data set [1] (514.5 nm argon laser), the “energy fluence at occlusion” value is on record as “about 35 kJ/sq cm” and the “total energy deposited at occlusion” value is reported as 140 to 180 joules (J). Moreover, the “occlusion, irradiation time” value in data set [1] (one-half the standard dose (20 mg/kg), two rats) is not above 4 min. Also, in data set [2] (four weeks), the “goblet cells on the cornea” value is on record as “no goblet cells were noted” and the histology of epithelium result is on record as “stratified cornea-like epithelium”. For the same molecule, the “goblet cell density, cytology” value in data set [2] (one week) is “decreased goblet cell density”. Besides, the “epithelial N/C ratio” value in data set [2] (one week, impression cytology) was “slight increase”. In addition, the goblet cell density result in data set [2] (treated areas, four days) is recorded as “remarkably decreased”. Besides, in data set [3], the “Factor VIII in photoinduced MCA thrombi” value is “abundance”. Further, the irradiation time in data set [4] (2 mg per 100 g i.v., 50 mW, 514.5 nm) was approximately 5 min. Besides, the occluded segment length entry in data set [4] (rat, in vivo) is “approximately 1 mm”. In data set [5], the “external examination, discoloration” value is reported as “slightly pinkish discoloration of the mucosal surfaces” and the “lethargy or change of appetite” value is “Neither lethargy nor change of appetite was noted”. Besides, the blood chemistry overall result in data set [5] (40 mg/kg) is “within the normal range except for a small number in the group that received the highest dosage”. For the same molecule, in data set [5] (iv), the long-term systemic toxicity entry is reported as “does not result in long-term systemic toxicity”.
